Measurements from ChEMBL document CHEMBL1201862, “PubChem BioAssay data set” (2004).
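Cultured in 96-well plates, cells were exposed to test compound for 48 hours across five concentrations. Abbreviation: GI50, concentration required for 50% inhibition of growth.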 Active and inactive are the calls of the source. No stated cut-off is given here; in the data, active = GI50 up to about 1.1 µM and inactive = higher.

What was measured:
Test in all cases: inhibition of tumour cell growth, NCI panel, 48 h
NCI/ADR-RES = system: NCI/ADR-RES
OVCAR-3 = system: OVCAR-3
NCI-H23 = system: NCI-H23
SNB-19 = system: SNB-19
PC-3 = system: PC-3
MDA-MB-231 = system: MDA-MB-231
SW-620 = system: SW-620
IGROV-1 = system: IGROV-1
MDA-MB-435 = system: MDA-MB-435
HOP-92 = system: HOP-92
SK-MEL-2 = system: SK-MEL-2
MCF7 = system: MCF7
LOX IMVI = system: LOX IMVI
A549 = system: A549
SK-OV-3 = system: SK-OV-3
T47D = system: T47D
DU-145 = system: DU-145
Malme-3M = system: Malme-3M
UACC-62 = system: UACC-62
SR = system: SR

| SMILES | GI50 (NCI/ADR-RES) | GI50 (OVCAR-3) | GI50 (NCI-H23) | GI50 (SNB-19) | GI50 (PC-3) | GI50 (MDA-MB-231) | GI50 (SW-620) | GI50 (IGROV-1) | GI50 (MDA-MB-435) | GI50 (HOP-92) | GI50 (SK-MEL-2) | GI50 (MCF7) | GI50 (LOX IMVI) | GI50 (A549) | GI50 (SK-OV-3) | GI50 (T47D) | GI50 (DU-145) | GI50 (Malme-3M) | GI50 (UACC-62) | GI50 (SR) |
| --- | --- | --- | --- | --- | --- | --- | --- | --- | --- | --- | --- | --- | --- | --- | --- | --- | --- | --- | --- | --- |
| COc1ccc2c(n1)Sc1nc3ccccc3nc1N2 | 24.7 µM (inactive) | 32.4 µM (inactive) | 17.9 µM (inactive) | 30.3 µM (inactive) | 89.5 µM (inactive) | 13.2 µM (inactive) | > 100 µM (inactive) | 5.92 µM (inactive) | 55.1 µM (inactive) | 78.5 µM (inactive) | > 100 µM (inactive) | 65.2 µM (inactive) | 31.4 µM (inactive) | > 100 µM (inactive) | 37.2 µM (inactive) | > 100 µM (inactive) | > 100 µM (inactive) | 29 µM (inactive) | 7.16 µM (inactive) | – |
| O=C(O)c1ccc(N/C(=C(/C(Cl)=C(Cl)Cl)[N+](=O)[O-])n2nnc3ccccc32)cc1 | > 100 µM (inactive) | > 100 µM (inactive) | > 100 µM (inactive) | > 100 µM (inactive) | > 100 µM (inactive) | > 100 µM (inactive) | > 100 µM (inactive) | – | > 100 µM (inactive) | – | > 100 µM (inactive) | > 100 µM (inactive) | – | > 100 µM (inactive) | > 100 µM (inactive) | > 100 µM (inactive) | – | > 100 µM (inactive) | > 100 µM (inactive) | – |
| O=[N+]([O-])C(=C1NCCN1)/C(Cl)=C(/Cl)N1CCOCC1 | > 100 µM (inactive) | > 100 µM (inactive) | > 100 µM (inactive) | > 100 µM (inactive) | > 100 µM (inactive) | > 100 µM (inactive) | > 100 µM (inactive) | – | > 100 µM (inactive) | – | > 100 µM (inactive) | > 100 µM (inactive) | – | > 100 µM (inactive) | > 100 µM (inactive) | > 100 µM (inactive) | > 100 µM (inactive) | > 100 µM (inactive) | > 100 µM (inactive) | – |
| CC1(C)CC(=O)C(CCC(=O)/C=C/c2ccccc2)C(=O)C1 | > 100 µM (inactive) | > 100 µM (inactive) | > 100 µM (inactive) | > 76.4 µM (inactive) | > 100 µM (inactive) | > 100 µM (inactive) | > 100 µM (inactive) | > 100 µM (inactive) | > 100 µM (inactive) | > 89.3 µM (inactive) | > 100 µM (inactive) | > 100 µM (inactive) | > 100 µM (inactive) | > 100 µM (inactive) | > 100 µM (inactive) | > 100 µM (inactive) | > 100 µM (inactive) | > 100 µM (inactive) | > 100 µM (inactive) | – |
| Cc1ccc(/C=N/Nc2cnccn2)s1 | > 100 µM (inactive) | > 100 µM (inactive) | > 100 µM (inactive) | > 100 µM (inactive) | > 100 µM (inactive) | 96.2 µM (inactive) | > 100 µM (inactive) | > 100 µM (inactive) | > 100 µM (inactive) | > 100 µM (inactive) | > 100 µM (inactive) | 17.4 µM (inactive) | > 100 µM (inactive) | > 100 µM (inactive) | > 100 µM (inactive) | > 100 µM (inactive) | – | > 100 µM (inactive) | > 100 µM (inactive) | – |
| Clc1nc2n(c1/C=C/c1cccs1)CCS2 | 29.6 µM (inactive) | 23.5 µM (inactive) | 29 µM (inactive) | 43.6 µM (inactive) | 40.8 µM (inactive) | 6.41 µM (inactive) | 26.9 µM (inactive) | 32 µM (inactive) | 31.1 µM (inactive) | – | > 100 µM (inactive) | 30.8 µM (inactive) | – | 34.5 µM (inactive) | 30.7 µM (inactive) | 17 µM (inactive) | 28.6 µM (inactive) | 90.8 µM (inactive) | 37.3 µM (inactive) | – |
| O=S1(=O)c2ccccc2Oc2ccc(C(/C=N/O)=N/O)cc21 | 17.4 µM (inactive) | 12.3 µM (inactive) | – | – | 32.5 µM (inactive) | 45.5 µM (inactive) | – | 29.2 µM (inactive) | 17.5 µM (inactive) | 45.2 µM (inactive) | 25.7 µM (inactive) | 26.5 µM (inactive) | 19.8 µM (inactive) | 65.5 µM (inactive) | 39.6 µM (inactive) | 9.08 µM (inactive) | 11.2 µM (inactive) | 0.132 µM (active) | 71.3 µM (inactive) | – |
| CN1C(=S)C(c2ccccc2)Sc2ccccc21 (centres undefined) | > 100 µM (inactive) | 48.2 µM (inactive) | 55.7 µM (inactive) | > 100 µM (inactive) | 17.6 µM (inactive) | > 100 µM (inactive) | – | > 100 µM (inactive) | 57 µM (inactive) | – | – | 48.8 µM (inactive) | 77.1 µM (inactive) | 84.3 µM (inactive) | 42.8 µM (inactive) | 78.5 µM (inactive) | > 100 µM (inactive) | 97.7 µM (inactive) | > 100 µM (inactive) | 64.4 µM (inactive) |
| COc1ccc(N2C(=O)CC(Cl)C2=O)cc1 (centres undefined) | 32.4 µM (inactive) | 15.2 µM (inactive) | 23.3 µM (inactive) | > 100 µM (inactive) | 52.2 µM (inactive) | 17.4 µM (inactive) | 18.7 µM (inactive) | > 100 µM (inactive) | > 100 µM (inactive) | 27.5 µM (inactive) | > 100 µM (inactive) | 60.1 µM (inactive) | 23.3 µM (inactive) | > 100 µM (inactive) | > 100 µM (inactive) | 18.9 µM (inactive) | 94.6 µM (inactive) | 17.5 µM (inactive) | 20.2 µM (inactive) | – |
| CC[C@@H]1CN2CCC1C[C@@H]2C(O)c1ccnc2ccc(OCCN3CCN(CCOc4ccc5nccc(C(O)[C@@H]6C[C@@H]7CCN6C[C@@H]7CC)c5c4)CC3)cc12 (some centres undefined) | > 100 µM (inactive) | 19.6 µM (inactive) | 20.7 µM (inactive) | 14.5 µM (inactive) | 15.9 µM (inactive) | 15.9 µM (inactive) | 21.8 µM (inactive) | 13.9 µM (inactive) | 13.8 µM (inactive) | 8.81 µM (inactive) | 19.9 µM (inactive) | 15.5 µM (inactive) | 14.8 µM (inactive) | 15.3 µM (inactive) | 18.3 µM (inactive) | 19.7 µM (inactive) | 17.5 µM (inactive) | 24.8 µM (inactive) | 16.1 µM (inactive) | – |
| CC(C)[C@H]1NC(=O)[C@H]2N=C(O[C@@H]2C)[C@@H]2CCCN2C(=O)[C@H](Cc2ccccc2)NC(=O)[C@@H]2COC(=N2)[C@@H](Cc2ccccc2)NC(=O)[C@@H]2COC1=N2 | > 100 µM (inactive) | > 100 µM (inactive) | > 100 µM (inactive) | > 100 µM (inactive) | > 100 µM (inactive) | > 100 µM (inactive) | > 100 µM (inactive) | > 100 µM (inactive) | > 100 µM (inactive) | – | > 100 µM (inactive) | > 100 µM (inactive) | > 100 µM (inactive) | > 100 µM (inactive) | > 100 µM (inactive) | > 100 µM (inactive) | > 100 µM (inactive) | > 100 µM (inactive) | > 100 µM (inactive) | – |
| C1=C2C3=[N+](CCCCC3)CC2Cc2ccsc21 (centres undefined) | > 100 µM (inactive) | 56.5 µM (inactive) | 49.9 µM (inactive) | 81.1 µM (inactive) | 39.5 µM (inactive) | > 100 µM (inactive) | 93.5 µM (inactive) | > 100 µM (inactive) | 60.3 µM (inactive) | 76.7 µM (inactive) | > 100 µM (inactive) | 50.1 µM (inactive) | 84.7 µM (inactive) | 21.5 µM (inactive) | > 100 µM (inactive) | 63.5 µM (inactive) | > 100 µM (inactive) | 39.9 µM (inactive) | > 100 µM (inactive) | – |
| Cc1cccc2c(=O)c3cccc([C@H](C)C(=O)O)c3oc12 | > 100 µM (inactive) | > 100 µM (inactive) | > 100 µM (inactive) | > 100 µM (inactive) | > 100 µM (inactive) | > 100 µM (inactive) | > 100 µM (inactive) | > 100 µM (inactive) | > 100 µM (inactive) | > 100 µM (inactive) | > 100 µM (inactive) | – | > 100 µM (inactive) | > 100 µM (inactive) | > 100 µM (inactive) | > 100 µM (inactive) | > 100 µM (inactive) | > 100 µM (inactive) | > 100 µM (inactive) | > 100 µM (inactive) |
| O=C(O)CCSc1ncnc2[nH]cnc12 | > 100 µM (inactive) | > 100 µM (inactive) | > 100 µM (inactive) | > 100 µM (inactive) | > 100 µM (inactive) | > 100 µM (inactive) | > 100 µM (inactive) | > 100 µM (inactive) | > 100 µM (inactive) | 27.1 µM (inactive) | > 100 µM (inactive) | > 100 µM (inactive) | > 100 µM (inactive) | > 100 µM (inactive) | > 100 µM (inactive) | > 100 µM (inactive) | > 100 µM (inactive) | > 100 µM (inactive) | > 100 µM (inactive) | – |
| C[C@]12CC[C@H]3[C@@H](CC[C@]4(O)C[C@@H](O)CC[C@]34CO)[C@@]1(O)CC[C@@H]2C1=CC(=O)OC1 [STROPHANTHIDOL] | 1.51 µM (inactive) | 0.993 µM (active) | 1.48 µM (inactive) | 5.94 µM (inactive) | 2 µM (inactive) | 8.45 µM (inactive) | 2.37 µM (inactive) | 2.79 µM (inactive) | 2.57 µM (inactive) | 2.78 µM (inactive) | 2.5 µM (inactive) | – | 2.01 µM (inactive) | 0.453 µM (active) | 2.64 µM (inactive) | 3.3 µM (inactive) | 1.36 µM (inactive) | 2.21 µM (inactive) | 3.52 µM (inactive) | 0.861 µM (active) |
